Converted amounts (≈) assume the structure as drawn. “Also recorded” adds a separate entry of the source. Read-outs that look alike come from different tables or passages of the source. Marks after values point to notes of the source that are not given here.
Columns and labels:
M. tuberculosis H37Rv [1] = experiment: MIC / dose response by modified microplate Alamar Blue assay (MABA); type: cell-based, Mycobacterium tuberculosis
M. tuberculosis TN587 = experiment: microbe, parasite or virus in culture; type: cell-based, Mycobacterium tuberculosis
M. tuberculosis NHN382 = experiment: microbe, parasite or virus in culture; type: cell-based, Mycobacterium tuberculosis
M. tuberculosis W210 = experiment: microbe, parasite or virus in culture; type: cell-based, Mycobacterium tuberculosis
M. tuberculosis NHN20 = experiment: microbe, parasite or virus in culture; type: cell-based, Mycobacterium tuberculosis
[2] = test system: Mycobacteria tuberculosis; experiment: MIC and drug response curve type (Tables A and B); type: cell-based, Mycobacterium tuberculosis; conditions: Table A; for Curve: drug response curve type; for MIC: in µg/mL
Experimental: A drug concentration response curve can be generated by graphing the log10 drug concentrations (μg/mL) against the difference in growth between the drug-treated wells and control wells. See FIG. 3C, and FIG. 5 (entries for SB-P23D8 and SB-P26D9). A NREBA is indicative of bacteriostatic activity above the MIC.
(§1) Further analysis using the methods described herein was performed on the compounds found in Tables A and B (bold font compounds are shown in FIG. 11) resulting in the data found therein.
MIC values were determined for the benzimidazoles using a modified 96-well microplate Alamar Blue (resazurin) assay (MABA) (see Kumar et al., J. Med. Chem. 2011; 54:374-381; Collins and Franzblau, Antimicrob. Agents Chemother. 1997; 41:1004-1009). Dose response curves were generated from the MABA assay for compounds by graphing the log10 drug concentrations against the difference in growth between the drug-treated wells and control wells using GraphPad Prism Version 5.0d for Mac OS X (GraphPad Software, San Diego Calif., USA, www.graphpad.com). For time dose studies, bacterial growth in the presence of compound was monitored by the O.D. 600 nm. […] The values were plotted against time using GraphPad Prism Version 5.0d for Mac OS X (GraphPad Software, San Diego Calif., USA, www.graphpad.com).

M. tuberculosis = experiment: Benzimidazoles activity tested in animals (animal models of infection, Table A); type: in vivo, mouse; conditions: Table A
Experimental: as §1
Compound efficacy was assessed in two murine models of infection based on the short term model described previously (Lenaerts et al., Antimicrob. Agents Chemother. 2003; 47:783-785). All aerosol infections were performed using a Middlebrook aerosol generation devise (Glas-Col, Terre Haute, Ind.).

M. tuberculosis H37Rv [3] = experiment: Growth inhibition / time dose curves (OD600 and CFU); type: cell-based, Mycobacterium tuberculosis; conditions: for reduction in number of viable bacteria: 1×MIC
M. tuberculosis Erdman = type: in vivo; conditions: for Δ Lungs (difference between means of Test and Control Groups) / Δ Spleen (difference between means of Test and Control Groups) / Log10CFU Lungs / Log10CFU Spleen: 50 mg/kg b.i.d. (Inh q.d.); for Log10CFU Lungs / Log10CFU Spleen: day 15
[4] = Cytotoxicity assay (resazurin, 72 h); type: cell-based; conditions: African green monkey, Vero cells; 72 h
Experimental: (§2) The cytotoxicity assay was performed as described previously^16. Briefly compounds were serially diluted in 96 well plates.

Vero cells = experiment: Cytotoxicity assay (resazurin, 72 h); type: cell-based; conditions: at 200 μg/mL
Experimental: as §2

[5] = test system: M. tuberculosis clinical isolates; experiment: microbe, parasite or virus in culture; type: cell-based, Mycobacterium tuberculosis
[6] = 100 ng/mL
Experimental: (§3) Plasma was spiked with the compound in order to obtain a final drug concentration of 100 ng/mL (expressed as non-salified compound). The spiked plasma (dedicated to C1h and C4h) was then incubated at 37° C. for 1 h and 4 h. Plasma samples were analyzed by LC-MS/MS following protein precipitation. The limit of quantification for compounds was 10 ng/mL.
(§4) 10 μL of the sample was injected to Luna Phenomenex C8 (50 mm×2.0 mm, 3 μm). Solvent A: ammonium acetate (0.15 g)/formic acid (2 mL)/HPLC water up to 1000 mL. Solvent B: ammonium acetate (0.15 g)/formic acid (2 mL)/Methanol (200 mL)/Acetonitrile up to 1000 mL, flow rate of 0.3 mL/min, t=0-6 min. gradient of 10-90% of B. Retention time for SB-P17G-C2 was 1.85 min and for SB-P17G-A20 was 3.3 min. MS/MS condition used for detection: Finnigan TSQ Quantum disco instrument, Excalibur version 2.0 acquisition system, ESI positive ion ionization mode. The mean percent of difference between C1h or C4h and C0 concentrations was calculated. M % D (%)=100×[(C1h or C4h)−C0]/C0
(§5) The compounds were considered as stable if the mean percent of difference between C4h and C0 concentrations was less than 20%.

[7] = Oxidative metabolic lability in human liver microsomes; conditions: for Liver Microsome Lability Human: 5 μM, 1 mg/mL microsomal protein, 20 min
Experimental: (§6) Microsomal fractions were prepared in the Drug Disposition Domain at DSAR Montpellier (371 rue du Pr. J. Blayac, 34184 Montpellier Cedex 04, France). […] The flavin-containing monooxygenases (FMO)-dependent reactions were run in the presence of bovine serum albumin (BSA, 0.1%) for the duration of 0 and 20 min (with or without microsomal proteins and/or cofactors). […] Following protein precipitation with acetonitrile and their removal by centrifugation, supernatant fluids were analyzed by LC/MS-MS.
(§7) Thermo Finnigan TSQ Quantum Ultra instrument, ESI positive ion ionization mode. Each compound is studied in duplicates. Results are expressed in percentage of lability (or total metabolism). Total metabolism=[1−(UC_Peak Area+Cofactor at T20)/(UC_Peak Area Reference at T0)]×100
(§8) The reactions were prepared as described and were run in the presence of bovine scrum albumin (BSA, 0.1%) for the duration of 0 and 20 min (with or without microsomal proteins and/or cofactors). Enzyme activity was stopped, the protein was precipitated and removed by centrifugation. The supernatant fluids were analyzed by LC/MS-MS. […] A Thermo Finnigan TSQ Quantum Ultra instrument, ESI positive ion ionization mode was used for MS/MS. Each compound was studied in duplicates. Results are expressed in percentage of lability (or total metabolism) using the following formula: Total metabolism=[1−(UC_Peak Area+Cofactor at T20)/(UC_Peak Area Reference at T0)]×100 where UC=Unchanged Compound; “Reference” sample was NADPH for liver microsomal preparation.

[8] = Oxidative metabolic lability in mouse liver microsomes; conditions: for Liver Microsome Lability Mouse: 5 μM, 1 mg/mL microsomal protein, 20 min
Experimental: as §6, §7, §8

Mtb FtsZ = Mtb FtsZ (Mycobacterium tuberculosis, UniProt P9WN95); experiment: FtsZ polymerization by transmission electron microscopy; type: biochemical; conditions: FtsZ 5 μM, GTP 25 μM, compound 40 μM and 80 μM
[9] = Plasma stability in mouse plasma; conditions: percent remaining
Experimental: as §3, §4, §5

Chain of Mtb FtsZ (P9WN95 whole entry, looked up): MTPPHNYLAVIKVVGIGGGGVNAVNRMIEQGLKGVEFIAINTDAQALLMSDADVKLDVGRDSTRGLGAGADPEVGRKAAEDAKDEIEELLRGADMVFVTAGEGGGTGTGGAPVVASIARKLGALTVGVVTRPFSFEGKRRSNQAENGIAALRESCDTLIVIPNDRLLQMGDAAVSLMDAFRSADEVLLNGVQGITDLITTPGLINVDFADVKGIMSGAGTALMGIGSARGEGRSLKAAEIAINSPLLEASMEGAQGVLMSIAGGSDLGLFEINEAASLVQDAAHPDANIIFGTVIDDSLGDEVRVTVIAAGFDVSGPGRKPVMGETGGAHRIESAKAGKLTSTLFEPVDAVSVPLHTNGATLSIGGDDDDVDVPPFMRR

CN(C)c1cc2[nH]c(C3CCCCC3)nc2cc1NC(=O)c1ccc(OC(F)(F)F)cc1F [SB-P17G-A38]
MIC (M. tuberculosis H37Rv [1]; H37Rv): 0.31 ± 0.22 µg/mL (≈ 0.667 µM) | MIC (M. tuberculosis H37Rv [1]; Mycobacterium tuberculosis, H37RV): 0.31 ± 0.22 µg/mL (≈ 0.667 µM) | MIC (M. tuberculosis TN587; Mycobacterium tuberculosis): 0.31 µg/mL (≈ 0.667 µM) | MIC (M. tuberculosis NHN382; Mycobacterium tuberculosis): 0.31 µg/mL (≈ 0.667 µM) | MIC (M. tuberculosis W210; Mycobacterium tuberculosis): 0.47 ± 0.22 µg/mL (≈ 1.01 µM) | MIC (M. tuberculosis NHN20; Mycobacterium tuberculosis): 0.24 ± 0.11 µg/mL (≈ 0.517 µM) | Curve [2]: Sigmoid | MIC [2]: .156 | Efficacy Lung (M. tuberculosis): Yes | Efficacy Spleen (M. tuberculosis): Yes | reduction in number of viable bacteria (M. tuberculosis H37Rv [3]; day 2): 2.8 Log10 CFU | reduction in number of viable bacteria (M. tuberculosis H37Rv [3]; day 6): 2.9 Log10 CFU | reduction in bacterial viability (M. tuberculosis H37Rv [3]; 3-6×MIC): 3.6-4.4 Log10 CFU | reduction of bacterial load in the lungs (M. tuberculosis Erdman; 50 mg/kg b.i.d. via either IP or PO): 6.1-6.3 Log10 CFU | Δ Lungs (difference between means of Test and Control Groups) (M. tuberculosis Erdman; IP): −6.30*** Log10 CFU | Δ Spleen (difference between means of Test and Control Groups) (M. tuberculosis Erdman; IP): −4.96*** Log10 CFU | Log10CFU Lungs (M. tuberculosis Erdman; IP): 0.39 ± 0.63 Log10 CFU | Log10CFU Spleen (M. tuberculosis Erdman; IP): 0 ± 0 Log10 CFU | Δ Lungs (difference between means of Test and Control Groups) (M. tuberculosis Erdman; PO): −6.10*** Log10 CFU | Δ Spleen (difference between means of Test and Control Groups) (M. tuberculosis Erdman; PO): −3.89*** Log10 CFU | Log10CFU Lungs (M. tuberculosis Erdman; PO): 0.22 ± 0.34 Log10 CFU | Log10CFU Spleen (M. tuberculosis Erdman; PO): 0 ± 0 Log10 CFU | reduction of bacterial load in the lungs (M. tuberculosis Erdman; delivered IP, 50 mg/kg b.i.d.): 6.3 Log10 CFU | reduction of bacterial load in the lungs (M. tuberculosis Erdman; delivered PO, 50 mg/kg b.i.d.): 6.1 Log10 CFU | IC50 at 72 h [4]: > 200 µg/mL | cytotoxicity in Vero cells (Vero cells): not cytotoxic; also recorded: non-toxic | MIC ([5]; Mycobacterium tuberculosis, read-out: minimal inhibitory concentrations): 0.16 to 0.47 µg/mL (≈ 0.344 to 1.01 µM) | Plasma Stability (% hydrolysis) Mouse (4 h) [6]: −11.5% | Liver Microsome Lability Human [7]: 13% | Liver Microsome Lability Mouse [8]: 4%

CN(C)c1cc2nc(C3CCCCC3)[nH]c2cc1NC(=O)c1ccc(OC(F)(F)F)cc1 [SB-P17G-A20]
MIC (M. tuberculosis H37Rv [1]): 0.16 μg/m | MIC (M. tuberculosis H37Rv [1]; H37Rv): 0.16 µg/mL (≈ 0.358 µM) | MIC (M. tuberculosis TN587): 0.16 µg/mL (≈ 0.358 µM) | MIC (M. tuberculosis NHN382): 0.16 µg/mL (≈ 0.358 µM) | MIC (M. tuberculosis W210): 0.16 µg/mL (≈ 0.358 µM) | MIC (M. tuberculosis NHN20): 0.16 µg/mL (≈ 0.358 µM) | Curve [2]: Sigmoid | MIC [2]: .31 | Efficacy Lung (M. tuberculosis): Yes | Efficacy Spleen (M. tuberculosis): Yes | concentration that steadily reduced bacterial viability (M. tuberculosis H37Rv [3]; CFU plating): 0.08 µg/mL | lowest concentration at which bacterial growth was reduced (M. tuberculosis H37Rv [3]; in some cases): 0.125 ×MIC | effect on FtsZ polymerization and aggregation (TEM) (Mtb FtsZ): fewer, shorter and thinner FtsZ polymers | MIC against different clinical strains [5]: 0.16 µg/mL (≈ 0.358 µM) | plasma stability (4 hours) in mice [9]: 75.6% | Liver Microsome Lability Human [7]: 39% | metabolic stability (liver microsomes) in humans ([7]; percent remaining): 61% | Liver Microsome Lability Mouse [8]: 45% | metabolic stability (liver microsomes) in mice ([8]; percent remaining): 55%

Source: patent publication US10287617B2, “Methods for in vitro—in vivo efficacy determination” (COLORADO STATE UNIVERSITY RESEARCH FOUNDATION, priority 2014, dated 2019)
